Entries after “also recorded” stand apart in the source; their conditions may differ.
Columns and labels:
[1] = test system: sirtuin activity in CD38 positive Ramos cells; test: Sirtuin activity assay (SIRT-GLO) in CD38 positive Ramos cells; assay type: cell-based; settings: 24 h
From the text: To quantify sirtuin activity, Promega's one-step SIRT-GLO™ assay was used. The reagent formulation contains an acetylated lysine attached to aminoluciferin, along with a peptide sequence derived from p53. Upon deacetylation of the lysine by a sirtuin, the deacetylated peptide becomes a substrate for the developer reagent present in the reaction mixture. This yields free aminoluciferin that reacts with luciferase to give a luminescent signal that is stable and quantifiable.
CD38 positive Ramos cells were treated with a bispecific, bivalent three chain binding compound as depicted in FIG. 11, Panel D, or isotype control, in a 96 well plate (2×10^5 cells/well). After 24 h, the plate was centrifuged at 500 g for 5 minutes, and the cells were washed with 1×PBS followed by centrifugation. The cell pellet was resuspended in 50 μL of M-PER Mammalian Protein extraction reagent on ice. The cells were transferred to 1.5 mL tubes and homogenized for 30 seconds. The lysate was centrifuged at 14,000 rpm for 5 minutes at 4° C. The supernatant was incubated with 1:30 of anti-SIRT1 antibody (Abcam #32441) for 4 h on a rotator at 4° C. Protein A slurry (25 μL per 50 μL of lysate) was added and further incubated for 2 h at room temperature Immunoprecipitation (IP) buffer (Pierce #28379) was added (500 μL per tube) followed by centrifugation at 2500 g for 2 minutes. The wash step with IP buffer was repeated and 50 μL of IgG elution buffer (Pierce #21004) was added. After 5 minutes of incubation at room temperature, the eluate was centrifuged at 2500 g for 2 minutes. The supernatant was immediately neutralized with 1 M Tris (pH 9), 10 μL per 100 μL eluate. The eluate was used in the SIRT GLO™ assay (Promega #G6450) at a 1:1 ratio with the SIRT GLO™ reagent, per the manufacturer's instructions.
CD38 positive Ramos cells were treated with a bispecific, bivalent three chain binding compound (depicted in FIG. 11, Panel D) in combination with nicotinamide mononucleotide (NMN) at a concentration of 400 nM, or isotype control, in a 96 well plate (2×10^5 cells/well). After 24 h, the plate was centrifuged at 500 g for 5 minutes, and the cells were washed with 1×PBS followed by centrifugation. The cell pellet was resuspended in 50 μL of M-PER Mammalian Protein extraction reagent on ice. The cells were transferred to 1.5 mL tubes and homogenized for 30 seconds. The lysate was centrifuged at 14,000 rpm for 5 minutes at 4° C. The supernatant was incubated with 1:30 of anti-SIRT1 antibody (Abcam #32441) for 4 h on a rotator at 4° C. Protein A slurry (25 μL per 50 μL of lysate) was added and further incubated for 2 h at room temperature Immunoprecipitation (IP) buffer (Pierce #28379) was added (500 μL per tube) followed by centrifugation at 2500 g for 2 minutes. […]

CD4 T cells = test: T-cell proliferation and IFNγ production in mixed lymphocyte reaction (MLR); assay type: cell-based
Procedure: Various binding compounds in accordance with embodiments of the invention were assessed for their ability to inhibit CD38 hydrolase activity without activating a mixed lymphocyte reaction (MLR). MLR occurs when MHC mismatched immune cells interact, triggering an immune response by T cell hyperproliferation and exacerbated cytokine release. […] The binding compounds were formulated at a concentration of 0.97 mg/mL in 20 mM Citrate, 100 mM NaCl, pH 6.2. Test substance was stored frozen at −80° C. until the day of use.
Analyses were performed to assess CD4 T cell proliferation and IFNγ production. The results are depicted in FIG. 20. […] The percentage of CD4 T cell proliferation is also shown in Panel C for a variety of other binding compounds.

Daudi cells [2] = test: Direct apoptosis / direct cytotoxicity of Daudi cells; assay type: cell-based
Procedure: (§1) Induction of direct apoptosis was assessed by Annexin-V and 7-AAD staining using flow cytometry. Annexin-V is commonly used to detect apoptotic cells by its ability to bind to phosphatidylserine, a marker of apoptosis when it is present on the outer leaflet of the plasma membrane. 7-AAD binds to double stranded DNA that is taken up by dying or dead cells with compromised membranes. The CD38 positive cell lines used in this study were Daudi and Ramos cells.
(§2) A quad gate was used to distinguish between early apoptotic (Annexin-V+, 7-AAD−), late apoptotic (Annexin-V+, 7-AAD+), and viable cells (Annexin-V−, 7-AAD−). Concentration of binding compound was plotted against percent viability in Graphpad Prism 8. The resulting plot was fitted to a non-linear regression to determine EC50.

Daudi cells [3] = test: NAD+ assay in Daudi cells; assay type: cell-based; settings: presence of NMN compared to absence of NMN, FIG. 19
Procedure: (§3) Studies were performed to assess whether blocking the ecto-NMNase activity of CD38 with the subject binding compounds causes an increase in the NMN-mediated increase in NAD+ within the CD38 expressing B cell lines Ramos and Daudi. The assay is based on the enzymatic cycling reaction in which NAD+ is reduced to NADH. NAD+ reacts with a colorimetric probe that produces a colored product. The intensity of the color is proportional to the NAD+ and NADH within a sample. Oxidized form is selectively destroyed by heating in basic solution, while reduced form is not stable in acidic solution.
(§4) Daudi or Ramos cells (2×10^5) were treated with antibody at a 5 nM concentration for 14 h. NAD+ was measured using an NAD+/NADH cycling assay kit (Cell Biolabs #MET-5014). Briefly, cell lysates were prepared in extraction buffer by homogenization, centrifugation at 4° C. at 14,000 rpm for 5 minutes, and deproteination through a 10 kDa spin filter. […] After 3 h, color development was read at 450 nm.
(§5) Daudi or Ramos cells (2×10^5) were treated with antibody at a 5 nM concentration in the presence or absence of 400 nM NMN for 14 h. NAD+ was measured using the NAD+/NADH cycling assay kit (Cell Biolabs #MET-5014). […] After 3 h, color development was read at 450 nm.

Ramos cells [4] = test: NAD+ assay in Ramos cells; assay type: cell-based; settings: presence of NMN compared to absence of NMN, FIG. 19
Procedure: as §3, §4, §5

[5] = test system: CD38 negative cell lines (293-Freestyle, HL-60, K562, CHO); test: Off target cell binding by flow cytometry (Example 10); settings: K562 and HL-60 cells, FIG. 23
Procedure: On target and off target cell binding of a bispecific, bivalent three chain binding compound as depicted in FIG. 11, Panel D, was assessed. The binding compound was formulated at a concentration of 0.97 mg/mL in 20 mM Citrate, 100 mM NaCl, pH 6.2. Test substance was stored frozen at −80° C. until the day of use. Binding to CD38 positive and CD38 negative cell lines was assessed using flow cytometry. The CD38 positive cell lines used were Daudi, Ramos, and a CHO cell line transfected to stably express CD38. The CD38 negative cell lines used were 293-Freestyle, HL-60, K562, and CHO.
The average MFI of unstained wells was set as the background signal. To calculate fold over background of each experimental sample, the experimental sample MFI was divided by the average background MFI.

Ramos cells [6] = test: Direct apoptosis of Ramos cells; assay type: cell-based; settings: Annexin-V and 7-AAD staining, flow cytometry, FIG. 24
Procedure: as §1, §2

[7] = test system: Xeno-GvHD in NOD scid gamma (NSG) mice; test: Xeno-GvHD model, human PBMCs in NSG mice; assay type: in vivo
Procedure: Xeno-GvHD was induced using 1.5 grays of radiation to facilitate colonization of human PBMCs in NOD scid gamma (NSG) mice. […] Survival was monitored until day 50. GvHD clinical score was determined mainly based on weight loss, posture, activity and fur texture. […] In contrast, the animals treated with PBMCs+PBS or PBMCs+mCD38 lost body weight quickly and were sacrificed before day 25 because of more than 20% weight loss. The survival, body weight, and clinical score data are shown in FIGS. 30, 31 and 32, respectively.

[8] = target: T1, human CD38 expressed on CHO cells (Homo sapiens, UniProt P28907); test: Cell-based CD38 hydrolase activity, UniAb mixtures, bivalent and tetravalent formats (FIGS. 7, 8, 12, 16); settings: tetravalent UniAbs with human IgG4 Fc region, FIG. 16; read-out: IC50, inhibition of hydrolase activity of human CD38 expressed on CHO cells
T1 construct: expressed in transfected cells; host or cells: CHO cells stably expressing human CD38
Procedure: After incubation, ε-NAD^+ (BioLog Cat. No. N010) was added to a final concentration of 150 μM. Production of a fluorescent product was measured at 1 hour (ex 300 nm/em 410 nm) using a Spectramax i3x plate reader (Molecular Devices). Hydrolase enzyme inhibition was assessed by comparing signal from UniAb™-treated wells to the percent of total enzymatic activity observed when CD38 protein was treated with an isotype control antibody (max).

Molecule: NC(=O)c1ccc[n+]([C@@H]2O[C@H](COP(=O)([O-])O)[C@@H](O)[C@H]2O)c1 [NMN, nicotinamide mononucleotide, reference compound]
- sirtuin activity, luminescence (in words) ([1]; NMN 400 nM, FIG. 28): did not result in an increase in sirtuin activity

Molecule: Daratumumab: antibody specific for human CD38, approved in 2015 for Multiple Myeloma
- percentage of CD4 T cell proliferation in MLR (in words) (CD4 T cells; FIG. 20, Panel A): did result in an increase
- IFNγ production in MLR (in words) (CD4 T cells; compared to IgG4 istp control, FIG. 20, Panel B): caused an increase

Molecule: Isatuximab: antibody against CD38 in clinical trials for Multiple Myeloma; VH SEQ ID NO: 30, VL SEQ ID NO: 31 [reference compound]
- direct cytotoxicity of Daudi cells (in words) (Daudi cells [2]; FIG. 10): potently kill Daudi cells
- direct apoptosis of Daudi cells (in words) (Daudi cells [2]; in 24 hours, stated with the NAD+ study): causes direct apoptosis
- intracellular NAD+ levels (in words) (Daudi cells [3]): not Daudi
- intracellular NAD+ levels (in words) (Ramos cells [4]): subtle difference in NAD+ increase

Molecule: TNB-738: bispecific, bivalent three chain anti-human CD38 molecule, FIG. 11 Panel D, comprising F11A and F12A VH sequences
- off target cell binding (in words) [5]: does not bind
- direct apoptosis of Daudi cells (in words) (Daudi cells [2]; Annexin-V and 7-AAD staining, flow cytometry, FIG. 24): did not cause direct apoptosis
- direct apoptosis of Ramos cells (in words) (Ramos cells [6]): did not cause direct apoptosis
- intracellular NAD+ levels (in words) (Daudi cells [3]): remarkably increased the NAD+ levels
- intracellular NAD+ levels (in words) (Ramos cells [4]): remarkably increased the NAD+ levels
- sirtuin activity, luminescence (in words) ([1]; NMN 5 nM, 50 nM or 500 nM, FIG. 29): further increased in a dose-dependent manner by the presence of increasing concentrations of NMN
- sirtuin activity, luminescence (in words) ([1]; NMN 400 nM, FIG. 28): further increased by the presence of NMN
- sirtuin activity, luminescence (in words) ([1]; no NMN, FIG. 26): dose-dependent increase in sirtuin activity
- prevention of GvHD (in words) ([7]; clinical score based on weight loss, posture, activity and fur texture): prevention of GvHD; also recorded: able to successfully prevent GvHD
- survival ([7]; day 50 after PBMC injection, treatments twice weekly until day 18): 100%

B1: CD38F12A_2GS_CD38F11A: tetravalent bispecific UniAb, FIG. 11 Panel B format, distal VH CD38F12A, GS linker, proximal VH CD38F11A, human IgG4 Fc region (antibody)
heavy: GVQLVESGGGLVQPGGSLRLSCTASGFTFSSSWMSWVRQAPGKGLEWVANIKQDGSEKDYVDSAKGRFTISRDNAKNSLYLQMNNLRAEDTAVYYCARDRRGPFFHIWGQGTLVTVSSGGGGSQVQLVESGGGVVQPGRSLRLSCAASGFTFSSYGMHWVRQAPGKEREWVAVISDDGSNKYYADSVKGRFTISRDNSKNTLYLQMNSLRVEDTAVYYCAKDRGTMRVVVYDTLDIWGQGTLVTVSS
modifications: left off: a dimerising Fc or GST
- IC50 [8]: 4.5 nM

— US20220372162A1, “PCT/US2020/066088” (TeneoFour, Inc., priority 2019, published 2022)
